Results on six compounds are retold here after patent US7037533B2 (priority 2001, dated 2006).

Like-named read-outs stand apart in the source and are kept apart here.

For data set [1] the following is noted: cited from earlier work.
The target in data set [2] is T1, CYP 1A2 (Rattus norvegicus, UniProt P04799).
T1 sequence (P04799 1-513): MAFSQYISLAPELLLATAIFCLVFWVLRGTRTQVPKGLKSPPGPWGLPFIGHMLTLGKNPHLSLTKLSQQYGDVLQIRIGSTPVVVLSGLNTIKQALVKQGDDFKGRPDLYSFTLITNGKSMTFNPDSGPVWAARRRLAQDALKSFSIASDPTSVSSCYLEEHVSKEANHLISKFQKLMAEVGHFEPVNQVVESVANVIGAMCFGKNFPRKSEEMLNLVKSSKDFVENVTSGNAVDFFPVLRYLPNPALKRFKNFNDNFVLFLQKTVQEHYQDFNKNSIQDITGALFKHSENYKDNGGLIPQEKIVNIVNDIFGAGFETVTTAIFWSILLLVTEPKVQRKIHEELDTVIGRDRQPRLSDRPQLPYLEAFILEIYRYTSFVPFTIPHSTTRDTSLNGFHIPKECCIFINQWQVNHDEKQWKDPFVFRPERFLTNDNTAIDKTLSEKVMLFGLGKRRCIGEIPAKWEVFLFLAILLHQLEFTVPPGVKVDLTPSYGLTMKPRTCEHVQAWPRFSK
Description: (§1) The present test measured the inhibition effect of CYP relating to NNK activation to various test materials after inducing CYP of a liver from a rat(Sprague-Dawley rat) by Aroclor 1254(Sigma, USA) and taking out the liver.
(§2) Aroclor 1254 was injected into the abdomen of a 7-week old male rat (Sprague-Dawley rat) in a capacity of 500 mg/kg. After 5 days, the liver was taken out in a sterile state and homogenized using 0.15M of KCl solution at 4° C. A supernatant was separated by a centrifugal separation for 10 minutes at 9000 g from the homogenate and used in the test. Activity of CYP was measured by using pentoxyresorufin(Sigma USA) which is a substrate of CYP 2B1/2/4, ethoxyresorufin(Sigma USA) which is a substrate of CYP 1A1 and methoxyresorufin(Sigma USA) which is a substrate of CYP 1A2. […] The inhibition effect for CYP activity was compared using the above reaction specimen (inhibition material), the supernatant taken out from the liver and specific substrate of each CYP. […] Each specimen has a concentration of 0.1, 0.5, 1.0 and 2.0 mg/ml and an amount of protein taken out from the liver is set to 500 μg/ml. Each substrate had 2.5 μM of stock solution and finally became 25 nM after adding 10 μl. […] The enzyme activity was measured by using a RF-5301 PC spectrofluoro photometer (SHIMADZU, Japan) from the supernatant (excitation at 522 nm and emission at 586 nm). […]

The subject of data set [3] is breast cancer, leukemia, uterus cancer, stomach cancer and colon cancer cell strain. The conditions noted are these: cited from earlier work.
The next data set deals with T2, purified CYP 1A2 (Homo sapiens, UniProt P05177).
T2 sequence (P05177 2-516 limits assumed): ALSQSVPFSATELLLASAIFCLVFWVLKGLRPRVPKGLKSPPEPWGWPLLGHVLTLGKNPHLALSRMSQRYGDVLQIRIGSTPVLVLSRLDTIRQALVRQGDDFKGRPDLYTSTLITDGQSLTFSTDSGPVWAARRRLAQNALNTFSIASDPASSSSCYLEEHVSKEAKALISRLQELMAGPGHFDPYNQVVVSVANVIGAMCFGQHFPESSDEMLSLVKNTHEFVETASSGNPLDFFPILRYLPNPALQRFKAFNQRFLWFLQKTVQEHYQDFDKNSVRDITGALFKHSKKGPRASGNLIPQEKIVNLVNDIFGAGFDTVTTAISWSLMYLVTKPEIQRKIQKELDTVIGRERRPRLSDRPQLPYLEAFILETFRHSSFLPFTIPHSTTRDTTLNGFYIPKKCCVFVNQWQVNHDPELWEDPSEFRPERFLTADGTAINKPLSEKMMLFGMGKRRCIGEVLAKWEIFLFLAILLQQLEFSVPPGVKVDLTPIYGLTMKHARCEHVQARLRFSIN
Description: purified RECO System CYP 1A2 enzyme activity with methoxyresorufin. Here is the method:
A composition of enzyme mixture comprises 0.5 uM CYP1A2, 0.2 μM NADPH P450 reductase, 0.5 μg/uL CHAPS, 0.1 μg/uL liposomes (dilauroyl phosphotidylcholine, dileoyl phosphotidylcholine, dilauroyl phosphotidylcholine (1:1:1)), 3 mM reductive glutathion, and 50 mM HEPES/KOH (pH 7.4). A buffer solution is 1 M potassium/sodium phosphate. 768 μl of tertiary distilled water, 126.7 μl of CYP 1A2 buffer solution, and 5.3 μl of 1 mM methoxyresorufin were added sequentially to make […] of solution and heated at 37° C. 5 μl of enzyme activation inhibiting material was added into 85 μl of buffer solution and substrate mixture to make final concentration 0.1, 0.5, 1.0, and 2.0 mg/ml respectively. The reaction started at 37° C. while adding 5 μl of CYP 1A2 enzyme mixture and 5 μl of 50 mM NADPH. The reaction was maintained for 20 minutes and stopped by adding 1 ml of methanol. The enzyme activity was measured by using a RF-5301 PC spectrofluoro photometer (SHIMADZU, Japan).

Data set [4] can be described thus: inhibition of nitrosomorpholine generation from morpholine and NaNO2 in vitro. To be noted: 20 mg/ml.
Description: EGCG, quercetin, catechin, vitamin C and powdered green tea were used as a control group. Each specimen was used in a concentration of 2.5, 5, 10, 15, 20 mg/ml. 200 mM of sodium nitrate not containing morpholine was used as a negative control. The specimen not containing the nitrosating agent NaNO2 was used as a blank in each reaction.
Each specimen was added into 15 ml of corning tubes according to concentration and marked with the blank, test, negative control. 1 ml of glacial acetic acid was added into each tube and 100 μl of 2 M NaNO2 was added into each tube except blank and distilled water was added to make total volume of 2 ml. After reacting for 10 minutes at 37° C., 176 μl of morpholine was added to make 2 M and the reaction was further carried out for 30 minutes at 37° C. The reaction was stopped by adding 3.8 ml of 5 N NaOH to set pH 10 to 12. According to DBA method, the specimens were measured and compared with blank group (not added NaNO2) and negative control group (not added morpholine and added 200 mM NaNO2).
Generation rate of nitrosomorpholine (NMOR %) is measured as below calculating formula 1. NMOR %=[(t0−blank)−(t30−blank)]/(t0−blank) (Calculating formula 1) • Blank; a specimen not containing nitrosating agent NaNO2 • t0; a specimen containing 200 mM of NaNO2 without morpholine • t30; a specimen normally reacted in the generation of nitrosomorpholine.
The target of data set [5] is T1, CYP 1A2. Description: MROD (methoxyresorufin dealkylase) activity in Aroclor 1254-induced rat liver supernatant.
Description: as §1, §2
The nature of data set [6]: DPPH free radical scavenging. As for the experimental part: 1.5 ml of DPPH was placed into a cuvette and 1.5 ml of antioxidant solution was added and evenly mixed. Right after mixing, the change of absorbance (523 nm) according to time was measured and the decomposition rate was calculated. Decomposition rate=(initial absorbance of DPPH−absorbance after adding each specimen according to time)/initial absorbance of DPPH×100 (Calculating formula 3)
(The DPPH test is a chemical assay of radical scavenging.)

On to `CN1C(=O)CC[C@H]1c1cccnc1` [cotinine], for which the half period in data set [1] (cotinine) is 24 h.

As to `O=C(O)CCC(=O)c1cccnc1` [ketoic acid], the “share of ketoic acid metabolized to hydroxy acid and excreted as urine” value in data set [1] (in vivo) is reported as 85%.

With `CN1CCCC1c1cccnc1` (stereo not drawn) [nicotine], in data set [1] (in vivo), the “share of nicotine conversed into cotinine” value is on record as 70-80%, the “share of nicotine conversed into nicotine-1-N-oxide by FMO” value is 4% and the “share of nicotine excreted as urine through metabolism” value is given as 80-90%. For the same compound, the half period in data set [1] (nicotine) was 0.5 h.

Consider `O=c1c(O)c(-c2ccc(O)c(O)c2)oc2cc(O)cc(O)c12` [quercetin], for which the “order of inhibition of activity of CYP 1A2” value on CYP 1A2 [2] is recorded as “quercetin>>the functional agent>>catechin≈powdered green tea”. Besides, the “concentration of quercetin at which propagation of cancer cell strain was inhibited” value in data set [3] is 10 µM. Moreover, the “order of inhibition of activity of purified CYP 1A2” value at purified CYP 1A2 is on record as “EGCG>>the functional agent>>quercetin>>powdered green tea>>catechin”. In data set [4], the “inhibition of generating nitromorpholine from morpholine” value is given as approximately 75%.

Take catechin: the “order of inhibition of activity of purified CYP 1A2” value at purified CYP 1A2 (purified enzyme) is “EGCG>>the functional agent>>quercetin>>powdered green tea>>catechin”. In addition, in data set [4], the “inhibition of generating nitromorpholine from morpholine” value is approximately 75%. Also, on CYP 1A2 [5], the “order of inhibition of activity of CYP 1A2” value is given as “quercetin>>the functional agent>>catechin≈powdered green tea”.

As to epigallocatechin-3-gallate [EGCG], the “order of inhibition of activity of purified CYP 1A2” value on purified CYP 1A2 (purified enzyme) is given as “EGCG>>the functional agent>>quercetin>>powdered green tea>>catechin”. In data set [6], the “DPPH radical scavenging effect, comparison” value was “two times higher than that of the functional agent and catechin”.
